{
  "source": "paper PMC3065929",
  "about": "(Journal of the American Chemical Society, 2011)",
  "assay_type_in_all_cases": "biochemical",
  "key": {"CoBPO [1]": {"molecular_target": "T1, CoBPO (Corallina officinalis, UniProt Q8LLW7)", "T1 sequence (Q8LLW7 1-598)": "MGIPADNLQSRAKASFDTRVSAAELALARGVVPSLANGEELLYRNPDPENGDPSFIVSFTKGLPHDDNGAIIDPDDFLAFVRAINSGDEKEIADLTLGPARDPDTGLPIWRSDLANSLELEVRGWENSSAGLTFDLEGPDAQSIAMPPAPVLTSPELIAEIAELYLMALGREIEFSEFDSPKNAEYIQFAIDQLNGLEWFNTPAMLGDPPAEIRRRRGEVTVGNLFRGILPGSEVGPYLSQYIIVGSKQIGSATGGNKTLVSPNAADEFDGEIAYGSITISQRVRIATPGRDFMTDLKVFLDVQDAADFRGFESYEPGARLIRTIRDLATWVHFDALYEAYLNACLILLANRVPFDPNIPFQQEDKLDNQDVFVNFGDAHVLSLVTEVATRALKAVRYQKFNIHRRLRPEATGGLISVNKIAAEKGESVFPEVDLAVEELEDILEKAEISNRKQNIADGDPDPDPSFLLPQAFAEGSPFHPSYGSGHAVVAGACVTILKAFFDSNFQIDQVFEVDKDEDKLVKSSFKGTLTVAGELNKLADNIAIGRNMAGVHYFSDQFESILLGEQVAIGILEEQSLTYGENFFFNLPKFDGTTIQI", "assay": "conversion to products"}, "NapH1": {"molecular_target": "T2, NapH1 (Streptomyces sp. CNQ-525, UniProt A7KH27)", "T2 sequence (A7KH27 42-527)": "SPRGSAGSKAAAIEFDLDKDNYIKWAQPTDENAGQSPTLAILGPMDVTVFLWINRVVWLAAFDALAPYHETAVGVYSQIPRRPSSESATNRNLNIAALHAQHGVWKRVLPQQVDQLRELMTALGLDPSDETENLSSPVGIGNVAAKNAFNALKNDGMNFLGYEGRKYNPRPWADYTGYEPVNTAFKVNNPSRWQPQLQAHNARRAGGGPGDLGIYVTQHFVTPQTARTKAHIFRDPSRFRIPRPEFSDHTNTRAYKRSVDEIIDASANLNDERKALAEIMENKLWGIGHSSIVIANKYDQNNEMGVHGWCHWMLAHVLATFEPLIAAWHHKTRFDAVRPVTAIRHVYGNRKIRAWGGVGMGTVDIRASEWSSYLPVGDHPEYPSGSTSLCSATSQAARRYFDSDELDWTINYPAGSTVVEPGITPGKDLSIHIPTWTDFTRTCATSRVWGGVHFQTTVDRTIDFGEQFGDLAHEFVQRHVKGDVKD", "assay": "HPLC assay of chlorination-cyclization", "conditions": "H2O2, chloride, pH 6; estimated, below detection limit of the assay"}, "CoBPO [2]": {"molecular_target": "T1, CoBPO", "assay": "spectrophotometric MCD bromination assay", "conditions": "H2O2, 0.2 M bromide, 30 °C"}},
  "data": [
    {"smiles": "CC(C)=CCC1=C(O)C(=O)c2ccccc2C1=O", "note": "[lapachol, 4-hydroxy-3-(3-methylbut-2-enyl)naphthalene-1,2-dione]", "values": [
      {"measurement": "conversion to products", "setting": "CoBPO [1]", "result": "CoBPO catalyzed the complete conversion of lapachol into numerous products"}
    ]},
    {"smiles": "CC(C)=CCC/C(C)=C/C[C@@]1(O)C(=O)c2cc(O)c(C)c(O)c2C(=O)[C@]1(Cl)CC=C(C)C", "note": "[compound 3, SF2415B1]", "values": [
      {"measurement": "Km", "setting": "NapH1", "result": "< 1", "unit": "µM"}
    ]},
    {"smiles": "CC1(C)CC(=O)C(Cl)C(=O)C1", "note": "[monochlorodimedone]", "values": [
      {"measurement": "spectrophotometric MCD bromination assay (290 nm)", "setting": "CoBPO [2]", "result": "Corallina officinalis V-BPO (CoBPO) (below)"}
    ]}
  ]
}
